In PMC6669608, “Evaluation of Oxasqualenoids from the Red Alga Laurencia viridis against Acanthamoeba” (Marine Drugs, 2019):

What was measured:
[1] = tested on: Acanthamoeba griffini trophozoites; experiment: In vitro activity against trophozoites of clinical strain A. griffini; format: cell-based, genotype T3; settings: trophozoite stage
Method: (§1) Subsequently, DT was tested against two clinical isolates, A. griffini, genotype T3 obtained in a previous study and A. polyphaga genotype T4 ATCC 30461. Those strains were grown axenically in the same medium as A. castellanii Neff.
(§2) The in vitro activities of the different compounds of Laurencia were evaluated using a previously developed colorimetric assay based on the alamarBlue™ Cell Viability Reagent assay (Life Technologies, Barcelona, Spain). Briefly, 50 µL of 5 × 10⁴ trophozoites/mL were seeded onto a 96-well microtiter plate. After 15 min, the adherence of the cells to the plate bottom was confirmed by the use of the inverted microscope Leica DMIL (Leica, Wetzlar, Germany). Furthermore, 50 µL of serial dilutions of each compound was added to the 96-well microtiter plate. Finally, alamarBlue™ was placed into each well at 10% of the final volume and incubated at 26 °C with slight agitation. After 96 h, the fluorescence was measured with EnSpire Multimode Plate Reader (Perkin Elmer, Madrid, Spain) at a wavelength of 570/585 nm. The inhibitory concentration to inhibit the growth of 50% of the parasites (IC50) was calculated through nonlinear regression analysis with 95% confidence limits using the software Sigma Plot 12.0 (Systat Software Inc., London, UK). The experiments were performed three times each, allowing for standard deviation.

[2] = tested on: Acanthamoeba polyphaga trophozoites; experiment: In vitro activity against trophozoites of clinical strain A. polyphaga; format: cell-based, Acanthamoeba polyphaga genotype T4 ATCC 30461; settings: trophozoite stage
Method: as §1, §2

[3] = tested on: A. castellanii; experiment: Measurement of ATP levels (CellTiter-Glo); format: cell-based, Acanthamoeba castellanii; settings: IC90, 24 h
Method: The ATP level was measured using a Cell Titer-Glo® Luminescent Cell Viability Assay (Promega, Alcobendas, Madrid). This required adding a single reagent (CellTiter-Glo® Reagent, Promega, Alcobendas, Madrid), which relies on the properties of a proprietary thermostable luciferase, generating a stable proportional luminescent signal to the amount of ATP present, which is directly proportional to the number of cells present in culture. After incubation, treated amoebas were mixed with the kit reagent into a white-wall 96-well microtiter plate (Nunc; Thermo Fisher Scientific Inc., Waltham, MA, USA) following the manufacturer’s instructions for measurement of the luminescence on a PerkinElmer spectrophotometer. The effect of the drug on the ATP production was evaluated by incubating 10^5 cells/mL with the previously calculated IC90 of DT following the manufacturer´s recommendations. As a negative control, an A. castellanii culture incubated with PYG medium was used.

[4] = tested on: A. castellanii Neff trophozoites; experiment: Plasma membrane permeability (SYTOX Green); format: cell-based, Acanthamoeba castellanii Neff; settings: IC90, 24 h
Method: The SYTOX Green assay was performed to detect alterations of the membrane permeability in treated cells. Briefly, 10^5 trophozoites were washed and incubated in saline solution with the SYTOX Green at a final concentration of 1 μM (Molecular Probes) for 15 min in the dark. Subsequently, DT solution was added (IC90).

[5] = tested on: Acanthamoeba castellanii Neff trophozoites; experiment: In vitro activity against Acanthamoeba trophozoites (alamarBlue colorimetric assay); format: cell-based, Acanthamoeba castellanii Neff (ATCC 30010); settings: 42.5 µM (25 µg/mL)

## C=C(CC[C@H](O)[C@@]1(C)CC[C@H](C(C)(C)O)O1)[C@H]1CC[C@H]2O[C@@H]([C@]3(C)CC[C@@H](Br)C(C)(C)O3)CC[C@]2(C)O1 [Compound 1, dehydrothyrsiferol]
[1]
  IC50: 56.7 ± 2.09 µM
[2]
  IC50: 73.4 ± 4.02 µM
[3]
  ATP level maintained after treatment: 19.52%
  decrease in the total ATP level in comparison to the negative control: 80.48%
[4]
  plasma membrane permeability (SYTOX Green): showed plasmatic membrane damage
[5]
  inhibitory effect on the growth of A. castellanii trophozoites (microscopy): many of the treated cells were dead
